What was measured:
[1] = tested on: human anagen hair follicles; details: cited from earlier work
[2] = tested on: p300/beta-catenin interaction; assay: Disruption of the p300/beta-catenin interaction; type: biochemical
Source text: (§1) Applicant next mapped the binding domains between CBP and beta-catenin, as well as between p300 and beta-catenin. The C-terminal trans-activating region of beta-catenin (647-781) interacted with the same 1-111 amino acids of both CBP and p300 (23). However, only the interaction between CBP and beta-catenin was disrupted by ICG-001, and not the p300/beta-catenin interaction.
IQ-1. In addition to ICG-001, a screen of a large chemical library for maintenance of pluripotency in mES cells led to the identification of another compound, termed IQ-1 (FIG. 2b). […] I-Q-1 diminishes the interaction between p300 and beta-catenin thereby increasing the CBP/beta-catenin interaction (24).

[3] = tested on: PC-12 cells with mutant PS-1 (L286V); assay: Neuronal differentiation of PC-12 cells with FAD mutant PS-1 (L286V); type: cell-based
Source text: However, the effects of PS-1 mutations on the stability of beta-catenin, TCF/beta-catenin signaling, and thereby its potential role in AD remain controversial. Applicant has shown that introduction of a FAD mutant PS-1 (L286V) into PC-12 cells causes increased TCF/beta-catenin signaling, leading to the inhibition of neurite outgrowth. […] In the CNS, EpB2 expression is associated with axonal guidance (16). […] In initial in vivo studies, applicant treated penta-transgenic mice that over express mutant APP (695) (Swedish (K670N, M671L), Florida (I716V) and London (V717I)) and PS-1 (M146L and L286V) mutations with ICG-001 for 2 months (months 2-4). These mice normally develop massive cerebral deposition of Aβ starting at 6 weeks of age.

[4] = target: CBP/beta-catenin interaction (Homo sapiens, UniProt Q92793); assay: Disruption of the CBP/beta-catenin interaction; type: biochemical
Source text: as §1

[5] = tested on: human skin (surgical waste); assay: Ex vivo human skin assay, qRT-PCR; type: cell-based; details: 24 hrs; 5 uM ICG-001, 5 uM methylated ICG-001, 1 ug/ml RA
Description: Methods. Ex Vivo human skin assay culture conditions were based upon a paper by Varani J et al Experimental and Molecular Pathology, 2004.
Briefly, human skin (surgical waste from plastic surgery procedures) was obtained and the subcutaneous layer of fat was trimmed manually with a scalpel. The skin was then cut into small fragments about 2 mm square and placed in 6 well plates. 1 ml of keratinocyte culture medium (Gibco 10724-011) with 1% P/S (penstrep antibiotic) was added to each well. The epidermis, bathed in media was placed facing up. On the next day (overnight culture in the media above), the skin fragments were transferred to fresh wells that contained either 5 uM ICG-001, 5-uM methylated ICG-001 or 1 ug/ml of retinoic acid (RA). After 24 hrs, skin samples in culture were removed for RNA isolation and qRT-PCR analysis of genes of interest (e.g., elastin (a gene involved in skin appearance and pliability (e.g., wrinkling)) and aquaporin 1, which is involved with hydration.

CBP/beta-catenin interaction, sequence (Q92793 whole entry): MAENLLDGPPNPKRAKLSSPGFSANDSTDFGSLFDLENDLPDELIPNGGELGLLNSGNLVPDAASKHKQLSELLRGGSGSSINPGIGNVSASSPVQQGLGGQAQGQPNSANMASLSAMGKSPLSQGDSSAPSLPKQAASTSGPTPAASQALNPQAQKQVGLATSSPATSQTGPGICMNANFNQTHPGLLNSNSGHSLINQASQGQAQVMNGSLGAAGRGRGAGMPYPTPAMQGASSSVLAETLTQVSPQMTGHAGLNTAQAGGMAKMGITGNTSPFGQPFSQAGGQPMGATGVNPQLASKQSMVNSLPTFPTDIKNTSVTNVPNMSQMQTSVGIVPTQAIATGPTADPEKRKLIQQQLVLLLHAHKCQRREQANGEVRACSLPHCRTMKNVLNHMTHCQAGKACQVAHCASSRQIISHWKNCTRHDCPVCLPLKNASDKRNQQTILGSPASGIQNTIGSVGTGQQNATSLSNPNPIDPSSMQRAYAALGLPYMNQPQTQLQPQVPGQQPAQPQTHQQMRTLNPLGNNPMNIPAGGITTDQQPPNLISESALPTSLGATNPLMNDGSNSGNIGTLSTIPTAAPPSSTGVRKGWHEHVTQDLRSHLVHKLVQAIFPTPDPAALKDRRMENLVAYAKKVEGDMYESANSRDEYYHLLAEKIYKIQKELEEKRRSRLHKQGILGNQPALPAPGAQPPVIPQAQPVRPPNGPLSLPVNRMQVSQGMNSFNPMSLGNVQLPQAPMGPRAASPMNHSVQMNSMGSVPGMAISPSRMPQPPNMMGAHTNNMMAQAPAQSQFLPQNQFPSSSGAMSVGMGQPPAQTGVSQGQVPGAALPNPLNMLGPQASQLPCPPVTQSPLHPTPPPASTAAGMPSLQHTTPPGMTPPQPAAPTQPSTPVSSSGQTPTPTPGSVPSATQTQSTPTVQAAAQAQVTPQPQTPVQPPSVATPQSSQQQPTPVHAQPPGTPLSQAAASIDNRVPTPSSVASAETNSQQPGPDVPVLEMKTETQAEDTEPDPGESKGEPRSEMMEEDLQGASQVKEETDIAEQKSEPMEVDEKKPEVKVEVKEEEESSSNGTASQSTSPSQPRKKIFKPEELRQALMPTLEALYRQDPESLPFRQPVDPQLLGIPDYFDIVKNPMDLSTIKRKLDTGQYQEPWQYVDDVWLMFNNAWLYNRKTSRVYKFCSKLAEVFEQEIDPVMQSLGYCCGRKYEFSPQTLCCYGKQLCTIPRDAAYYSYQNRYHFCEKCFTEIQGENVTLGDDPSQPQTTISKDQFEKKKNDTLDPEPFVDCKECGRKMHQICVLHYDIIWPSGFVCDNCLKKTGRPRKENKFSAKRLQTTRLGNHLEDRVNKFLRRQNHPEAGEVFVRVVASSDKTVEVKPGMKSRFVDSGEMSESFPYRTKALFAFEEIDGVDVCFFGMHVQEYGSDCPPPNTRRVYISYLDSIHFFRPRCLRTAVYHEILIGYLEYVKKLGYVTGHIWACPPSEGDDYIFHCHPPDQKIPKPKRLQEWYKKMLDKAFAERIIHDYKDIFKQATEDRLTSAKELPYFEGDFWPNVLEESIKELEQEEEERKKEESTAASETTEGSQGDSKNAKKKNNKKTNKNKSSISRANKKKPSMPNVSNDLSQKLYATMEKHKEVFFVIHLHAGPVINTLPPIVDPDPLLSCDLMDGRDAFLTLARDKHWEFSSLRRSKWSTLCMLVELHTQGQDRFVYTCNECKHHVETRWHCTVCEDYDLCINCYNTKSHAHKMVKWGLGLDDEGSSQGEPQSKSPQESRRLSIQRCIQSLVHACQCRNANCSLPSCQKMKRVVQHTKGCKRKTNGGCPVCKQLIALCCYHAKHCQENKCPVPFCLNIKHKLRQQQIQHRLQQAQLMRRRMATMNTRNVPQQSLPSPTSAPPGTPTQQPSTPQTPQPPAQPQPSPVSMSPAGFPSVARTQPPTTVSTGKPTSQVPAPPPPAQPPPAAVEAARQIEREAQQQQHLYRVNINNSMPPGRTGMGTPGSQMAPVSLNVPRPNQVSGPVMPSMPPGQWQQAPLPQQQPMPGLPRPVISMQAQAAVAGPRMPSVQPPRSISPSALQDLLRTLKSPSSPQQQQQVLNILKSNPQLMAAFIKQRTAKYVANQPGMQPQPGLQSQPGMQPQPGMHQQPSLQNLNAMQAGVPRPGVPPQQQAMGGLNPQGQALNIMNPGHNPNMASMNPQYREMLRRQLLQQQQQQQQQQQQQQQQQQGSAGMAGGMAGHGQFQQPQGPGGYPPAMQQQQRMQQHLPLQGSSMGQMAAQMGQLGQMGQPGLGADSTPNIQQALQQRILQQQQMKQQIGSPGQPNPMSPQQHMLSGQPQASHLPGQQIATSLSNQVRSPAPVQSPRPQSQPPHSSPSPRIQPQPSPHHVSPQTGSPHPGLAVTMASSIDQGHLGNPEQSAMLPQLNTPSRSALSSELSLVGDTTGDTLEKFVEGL

Question: With `O=C1[C@H](Cc2ccc(O)cc2)N2C(=O)CCN(C(=O)NCc3ccccc3)[C@H]2CN1Cc1cccc2ccccc12` [ICG-001] as the compound, how does the hair fiber elongation ([1]; dose-dependent) read?
Answer: significantly reduced

Question: What about the survivin expression ([1]; microdissected hair follicle) of the same compound?
Answer: decreased

Question: What about the p300/beta-catenin interaction [2] of the same compound?
Answer: without affecting

Question: And the EpB2 expression [3]?
Answer: again increased

Question: And the “neuronal differentiation and neurite outgrowth” value [3]?
Answer: rescues the defects

Question: What about the “expression of GAP43” value ([3]; NGF-induced differentiation) of the same compound?
Answer: dramatically increased

Question: And the “interaction between CBP and beta-catenin” value [4]?
Answer: disrupted

Question: And the “expression of aquaporin 1” value [5]?
Answer: increase

Question: What about the expression of elastin [5] of the same compound?
Answer: increase
